Test results published in patent publication US20080206770A1, “SCREENING METHODS USED TO IDENTIFY COMPOUNDS THAT MODULATE SKIN STROMAL CELLS (FIBROBLASTS) ABILITY TO MODIFY FUNCTION OF EXTRACELLULAR MATRIX” (priority 2007, published 2008).
Blank lines part the entries; values can stand above or below the substance they belong to.

Legend:
[1] = tested on: dermal fibroblasts isolated from 17 individuals; assay: Real time RT-PCR of ECM components, nuclear hormone receptors and coregulators in fibroblasts from 17 individuals; assay type: cell-based, human; conditions: 24 hours
Protocol: Total RNA was extracted from cells using RNA aqueous kit (Ambion, USA). First-strand cDNAs were synthesized with Superscript III reverse transcriptase (Invitrogen, USA) and 1 μg of total RNA using oligo d(T) priming in a final reaction volume of 40 μL.
Levels of specific mRNAs were measured by real-time RT-PCR using Platinum SYBR Green qPCR SuperMix UDG (Invitrogen) according the protocol on the LightCycler 2.0 (Roche, US). The cycling program steps were: for one cycle 50° C. 2 min, for one cycle 95° C. 2 min and for 45 cycles: 95° C. 10 s, 60° C. 10 s, 72° C. 10 s. All samples were run in triplicates. Results were analyzed with the comparative Ct method (from Applied Biosystems manual; Livak and Schmittgen, 2001). Every sample was normalized for the housekeeping gene GAPDH. Transcript levels in the atRA and TGFb1 treated samples were compared to control samples.

[2] = tested on: skin fibroblasts from 30 individuals; assay: Combined score of expression stimulation of 5 genes in fibroblast isolates (FIG. 1); assay type: cell-based, human; conditions: 24 hour treatment, atRA 10^-7 M, Matrixyl 1 μM, KappaElastin 1 μM
Protocol: Human dermal fibroblasts were grown in DMEM cell culture media containing 10% fetal bovine serum and 1% penicillin/streptomycin (Invitrogen). For all experiments, third-passage fibroblasts were used one day after reaching confluence. […] After 24 hour treatment RNA and protein was isolated and analyzed for the expression of components of ECM and transcriptional regulators.
Total RNA from various human tissues was purified using RNAwiz (Ambion, USA) and subjected to subsequent DNase I treatment using the DNA-Free kit (Ambion). Total RNA from cancer cells was purified by using 4PCRmini kit (Ambion). First-strand cDNAs were synthesized with Superscript III reverse transcriptase (Invitrogen, USA) and 5 μg of total RNA using oligo d(T) priming in a final reaction volume of 50 μL
The cDNA was amplified by PCR using the 2.5 U Hot-Firepol (Solis BioDyne, Estonia) and buffer Yellow (Naxo, Estonia). Reaction was performed in a 10 ul volume, using 0.5 ul cDNA as a template. Following primer sets were designed for this study:
The combined score of expression stimulation of 5 genes was calculated and blotted for each fibroblast isolate. […] This biological variation provides a good biological rational to use molecular diagnostics for matching cosmetics product and skin cells of specific individual (personalized cosmetics).

[3] = fibroblasts from 17 individuals, 10 ng/ml

expression of metalloproteinases and PPARγ ([1]; 10 ng/ml, 17 individuals): suppresses significantly
gene expression of majority of collagens ([1]; 10 ng/ml, 17 individuals): strongly upregulated
individual variation of collagen gene expression between individual fibroblasts ([1]; 10 ng/ml, 17 individuals): up to 13 fold
variation of expression of PPARγ between different individuals ([1]; 10 ng/ml, 17 individuals): up to 17 fold
effect on gene expression of different ECM genes compared with atRA ([1]; TGFβ1 10 ng/ml vs atRA 1 μM): noticeably stronger
CBP expression in TGFbeta1 treatment compared to control, from-to between individuals [1, 3]: (from −2.24 to 2.29) fold
COL1A1 expression in TGFbeta1 treatment compared to control, from-to between individuals [1, 3]: (from −1.11 to 7.75) fold
COL1A2 expression in TGFbeta1 treatment compared to control, from-to between individuals [1, 3]: (from 1.14 to 9.58) fold
COL3A1 expression in TGFbeta1 treatment compared to control, from-to between individuals [1, 3]: (from −1.75 to 6.82) fold
COL4A1 expression in TGFbeta1 treatment compared to control, from-to between individuals [1, 3]: (from 2.52 to 16.22) fold
COL5A1 expression in TGFbeta1 treatment compared to control, from-to between individuals [1, 3]: (from −1.61 to 6.08) fold
COL5A2 expression in TGFbeta1 treatment compared to control, from-to between individuals [1, 3]: (from 1.3 to 3.42) fold
CTGF expression in TGFbeta1 treatment compared to control, from-to between individuals [1, 3]: (from −1.8 to 11.00) fold
ELN expression in TGFbeta1 treatment compared to control, from-to between individuals [1, 3]: (from −3.33 to 10.63) fold
FN 1 transcr.v.1 expression in TGFbeta1 treatment compared to control, from-to between individuals [1, 3]: (from −3.23 to 3.75) fold
Individual variation of gene expression in TGFbeta1 treatment: CBP [1, 3]: 4.53 fold
Individual variation of gene expression in TGFbeta1 treatment: COL1A1 [1, 3]: 8.86 fold
Individual variation of gene expression in TGFbeta1 treatment: COL1A2 [1, 3]: 8.44 fold
Individual variation of gene expression in TGFbeta1 treatment: COL3A1 [1, 3]: 8.57 fold
Individual variation of gene expression in TGFbeta1 treatment: COL4A1 [1, 3]: 13.7 fold
Individual variation of gene expression in TGFbeta1 treatment: COL5A1 [1, 3]: 7.69 fold
Individual variation of gene expression in TGFbeta1 treatment: COL5A2 [1, 3]: 2.12 fold
Individual variation of gene expression in TGFbeta1 treatment: CTGF [1, 3]: 12.8 fold
Individual variation of gene expression in TGFbeta1 treatment: ELN [1, 3]: 13.96 fold
Individual variation of gene expression in TGFbeta1 treatment: FN 1 transcr.v.1 [1, 3]: 6.98 fold
Individual variation of gene expression in TGFbeta1 treatment: MMP1, collagenase 1 [1, 3]: 7.02 fold
Individual variation of gene expression in TGFbeta1 treatment: MMP2 gelatinase [1, 3]: 4.77 fold
Individual variation of gene expression in TGFbeta1 treatment: MMP3 stromelysin [1, 3]: 5.8 fold
Individual variation of gene expression in TGFbeta1 treatment: MMP7 [1, 3]: 32.8 fold
Individual variation of gene expression in TGFbeta1 treatment: MMP10, stromelysin 2 [1, 3]: 45.93 fold
Individual variation of gene expression in TGFbeta1 treatment: NCOA1 [1, 3]: 5.64 fold
Individual variation of gene expression in TGFbeta1 treatment: NCOA2 [1, 3]: 1.58 fold
Individual variation of gene expression in TGFbeta1 treatment: NCOA3 [1, 3]: 6.21 fold
Individual variation of gene expression in TGFbeta1 treatment: NCOA5 [1, 3]: 4.56 fold
Individual variation of gene expression in TGFbeta1 treatment: NCOA6 [1, 3]: 2.82 fold
Individual variation of gene expression in TGFbeta1 treatment: NCOR1 [1, 3]: 7.31 fold
Individual variation of gene expression in TGFbeta1 treatment: PPARG [1, 3]: 17.71 fold
Individual variation of gene expression in TGFbeta1 treatment: TIMP1 [1, 3]: 5.73 fold
MMP1, collagenase 1 expression in TGFbeta1 treatment compared to control, from-to between individuals [1, 3]: (from −5.05 to 1.97) fold
MMP2 gelatinase expression in TGFbeta1 treatment compared to control, from-to between individuals [1, 3]: (from −2.51 to 2.26) fold
MMP3 stromelysin expression in TGFbeta1 treatment compared to control, from-to between individuals [1, 3]: (from −3.22 to 2.58) fold
MMP7 expression in TGFbeta1 treatment compared to control, from-to between individuals [1, 3]: (from −29.96 to 2.84) fold
MMP10, stromelysin 2 expression in TGFbeta1 treatment compared to control, from-to between individuals [1, 3]: (from −5.0 to 40.93) fold
NCOA1 expression in TGFbeta1 treatment compared to control, from-to between individuals [1, 3]: (from −2.76 to 2.88) fold
NCOA2 expression in TGFbeta1 treatment compared to control, from-to between individuals [1, 3]: (from −2.54 to −0.96) fold
NCOA3 expression in TGFbeta1 treatment compared to control, from-to between individuals [1, 3]: (from −4.81 to 1.4) fold
NCOA5 expression in TGFbeta1 treatment compared to control, from-to between individuals [1, 3]: (from −3.13 to 1.43) fold
NCOA6 expression in TGFbeta1 treatment compared to control, from-to between individuals [1, 3]: (from 1.64 to 1.18) fold
NCOR1 expression in TGFbeta1 treatment compared to control, from-to between individuals [1, 3]: (from −2.54 to 4.77) fold
PPARG expression in TGFbeta1 treatment compared to control, from-to between individuals [1, 3]: (from −16.51 to 1.2) fold
TIMP1 expression in TGFbeta1 treatment compared to control, from-to between individuals [1, 3]: (from −2.45 to 3.28) fold
Substance: TGFbeta1: well-characterized profibrotic factor

Substance: palmitoys pentapeptide-3 [Matrixyl]
combined score of expression stimulation of 5 genes (COL1A1, COL2A1, elastin, proteoglycan, TIMP1) per fibroblast isolate [2]: 3 groups of fibroblasts that have different response
